Measured values reported in ChEMBL document CHEMBL1122370 (J Med Chem, 1983).

Experiments:
Mus musculus [1] = test: Average weight of the mouse after treating with 10 mg/kg dose for 7 days.; assay type: functional
Mus musculus [2] = test: Average weight of the mouse after treating with 40 mg/kg dose for 1 day.; assay type: functional; set-up: unit not given here
L1210 [3] = test: In vivo antitumor activity against L1210 leukemia in 5 mice measured as median survival range at 10 mg/kg; Value ranges from(13-20); assay type: functional, Mus musculus
L1210 [4] = test: In vivo antitumor activity against L1210 leukemia in 5 mice measured as Increased life span at 20 mg/kg.; assay type: functional; settings: Mus musculus
L1210 [5] = test: In vivo anti tumor activity against L1210 leukemia in 5 mice measured as Increased life span at 10 mg/kg.; assay type: functional; settings: Mus musculus
L1210 [6] = test: In vivo antitumor activity against L1210 leukemia in 17 mice measured as T/C values; T/C = 17/9; assay type: functional, Mus musculus
Mus musculus [7] = test: Average weight of the mouse after treating with 40 mg/kg dose for 7 days.; assay type: functional; set-up: unit not given beside the values
Mus musculus [8] = test: (§1) Average weight of the mouse after treating with 20 mg/kg dose for 7 days.; assay type: functional; set-up: unit not given beside the values
Mus musculus [9] = test: Average weight of the mouse after treating with 20 mg/kg dose for 1 day.; assay type: functional; set-up: unit not given here
L1210 [10] = test: In vivo antitumor activity against L1210 leukemia in 5 mice measured as median survival range at 20 mg/kg; Value ranges from(13-22); assay type: functional, Mus musculus
L1210 [11] = test: In vivo antitumor activity against L1210 leukemia in 5 mice measured as median survival range at 40 mg/kg; Value ranges from(22-27); assay type: functional, Mus musculus
Mus musculus [12] = test: Average weight of the mouse after treating with 10 mg/kg dose for 1 day.; assay type: functional; set-up: unit not given here
L1210 [13] = test: In vivo antitumor activity against L1210 leukemia in 5 mice measured as Increased life span at 40 mg/kg.; assay type: functional; settings: Mus musculus
L1210 [14] = test: In vivo antitumor activity against L1210 leukemia in 24 mice measured as T/C value; T/C = 24/9; assay type: functional, Mus musculus
L1210 [15] = test: In vivo antitumor activity against L1210 leukemia in 18 mice measured as T/C values; T/C = 18/9; assay type: functional, Mus musculus
L1210 [16] = test: In vivo antitumor activity against L1210 leukemia in 5 mice measured as median survival range at 20 mg/kg; Value ranges from(17-25); assay type: functional, Mus musculus
L1210 [17] = test: In vivo antitumor activity against L1210 leukemia in 15 mice measured as T/C values; T/C = 15/9; assay type: functional, Mus musculus
Mus musculus [18] = test: as §1; assay type: functional
L1210 [19] = test: In vivo antitumor activity against L1210 leukemia in 5 mice measured as median survival range at 10 mg/kg; Value ranges from(15-21); assay type: functional, Mus musculus
L1210 [20] = test: In vivo antitumor activity against L1210 leukemia in 5 mice measured as Increased life span at 10 mg/kg.; assay type: functional; settings: Mus musculus
Mus musculus [21] = test: Average weight change in mouse after treating with 40 mg/kg dose for 7 days.; assay type: functional
L1210 [22] = test: In vivo antitumor activity against L1210 leukemia in 5 mice measured as median survival range at 20 mg/kg; Value ranges from (11-15); assay type: functional, Mus musculus
L1210 [23] = test: In vivo antitumor activity against L1210 leukemia in 14 mice measured as T/C values; T/C = 14/9; assay type: functional, Mus musculus
Mus musculus [24] = test: Average weight change in mouse after treating with 20 mg/kg dose for 7 days.; assay type: functional; set-up: unit not given beside the values
L1210 [25] = test: In vivo antitumor activity against L1210 leukemia in 13 mice measured as T/C values; T/C = 13/9; assay type: functional, Mus musculus
L1210 [26] = test: In vivo antitumor activity against L1210 leukemia in 5 mice measured as median survival range at 40 mg/kg; Value ranges from (12-20); assay type: functional, Mus musculus
L1210 [27] = test: In vivo antitumor activity against L1210 leukemia in 5 mice measured as median survival range at 10 mg/kg; Value ranges from (11-13); assay type: functional, Mus musculus
L1210 [28] = test: In vivo antitumor activity against L1210 leukemia in 14 mice measured as T/C values(days); T/C = 14/9; assay type: functional, Mus musculus
L1210 [29] = test: In vivo antitumor activity against L1210 leukemia in 12 mice measured as T/C values; T/C = 12/9; assay type: functional, Mus musculus
L1210 [30] = test: In vivo antitumor activity against L1210 leukemia in 5 mice measured as median survival range at 20 mg/kg; Value ranges from (12-16); assay type: functional, Mus musculus
L1210 [31] = test: In vivo antitumor activity against L1210 leukemia in 5 mice measured as median survival range at 40 mg/kg; Value ranges from (11-21); assay type: functional, Mus musculus
Mus musculus [32] = test: Average weight change in mouse after treating with 10 mg/kg dose for 7 days.; assay type: functional
L1210 [33] = test: In vivo antitumor activity against L1210 leukemia in 5 mice measured as T/C values(days); T/C = 17/9; assay type: functional, Mus musculus

Row | Compound | Weight change (Mus musculus [1]) | Average weight (Mus musculus [2]) | ILS at 20 mg/kg (L1210 [4]) [%] | ILS at 10 mg/kg (L1210 [5]) [%] | Average weight (Mus musculus [9]) | Average weight (Mus musculus [12]) | ILS at 40 mg/kg (L1210 [13]) [%] | T/C (L1210 [14]) | Weight change (Mus musculus [21]) | Weight change (Mus musculus [24]) | other results
1 | CN(Cc1cnc2nc(N)nc(N)c2n1)c1ccc(C(=O)NC(CCC(=O)OCc2cc3c(cc2Cl)OCO3)C(=O)OCc2cc3c(cc2Cl)OCO3)cc1 (stereo not given) | 2.1 | 21.4 | 100 | 88 | 22.2 | 22.5 | 167 | 9 |  |  | Range (L1210 [3]): 20; T/C (L1210 [6]): 11; Weight change (Mus musculus [7]): 0.2; Weight change (Mus musculus [8]): 1; Range (L1210 [10]): 22; Range (L1210 [11]): 27; T/C (L1210 [15]): 9
2 | CN(Cc1cnc2nc(N)nc(N)c2n1)c1ccc(C(=O)NC(CCC(=O)OCc2c(Cl)cccc2Cl)C(=O)OCc2c(Cl)cccc2Cl)cc1 (stereo not given) | 1.4 |  | 167 |  | 22.4 | 21.6 |  | 9 |  |  | Range (L1210 [16]): 25; T/C (L1210 [17]): 9; Weight change (Mus musculus [18]): 0.8; Range (L1210 [19]): 21; ILS at 10 mg/kg (L1210 [20]): 66%
3 | CCOCCOC(=O)CCC(NC(=O)c1ccc(N(C)Cc2cnc3nc(N)nc(N)c3n2)cc1)C(=O)OCCOCC (stereo not given) |  | 23.1 | 44 |  | 22.6 |  | 55 |  | 0.5 | 1.5 | Range (L1210 [22]): 15; T/C (L1210 [23]): 9; T/C (L1210 [25]): 9; Range (L1210 [26]): 20
4 | CC(C)CCOC(=O)CCC(NC(=O)c1ccc(N(C)Cc2cnc3nc(N)nc(N)c3n2)cc1)C(=O)OCCC(C)C (stereo not given) |  | 23.2 | 33 | 33 | 23.7 | 21.9 | 88 |  | 1 | 1.9 | Range (L1210 [27]): 13; T/C (L1210 [28]): 14; T/C (L1210 [29]): 12; Range (L1210 [30]): 16; Range (L1210 [31]): 21; Weight change (Mus musculus [32]): 3; T/C (L1210 [33]): 17
